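Protocol summary: plate cells (96-well), add compound at 5 concentrations, incubate 48 h, interpolate endpoints linearly. GI50 = concentration required for 50% inhibition of growth. TGI: total growth inhibition.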
Key:
Assay in all cases: NCI anticancer screen, dose series, 48 h; in the data active = GI50 below about 0.43 µM; inactive = the rest
MDA-MB-231 breast = tested on: MDA-MB-231 breast
MDA-MB-435 = tested on: MDA-MB-435
A549 NSCLC = tested on: A549 NSCLC
786-0 renal = tested on: 786-0 renal
OVCAR-4 ovarian = tested on: OVCAR-4 ovarian
PC-3 prostate = tested on: PC-3 prostate
EKVX NSCLC = tested on: EKVX NSCLC
NCI/ADR-RES ovarian = tested on: NCI/ADR-RES ovarian
BT-549 breast = tested on: BT-549 breast
UO-31 renal = tested on: UO-31 renal
SNB-19 CNS = tested on: SNB-19 CNS
SF-268 CNS = tested on: SF-268 CNS
SK-MEL-5 melanoma = tested on: SK-MEL-5 melanoma
NCI-H460 lung = tested on: NCI-H460 lung
OVCAR-8 ovarian = tested on: OVCAR-8 ovarian
NCI-H23 lung = tested on: NCI-H23 lung
RPMI-8226 leukemia = tested on: RPMI-8226 leukemia
HS 578T breast = tested on: HS 578T breast
HCT-116 colon = tested on: HCT-116 colon
HOP-62 NSCLC = tested on: HOP-62 NSCLC
OVCAR-5 ovarian = tested on: OVCAR-5 ovarian
SK-MEL-2 melanoma = tested on: SK-MEL-2 melanoma
SK-OV-3 ovarian = tested on: SK-OV-3 ovarian
ACHN renal = tested on: ACHN renal
UACC-257 melanoma = tested on: UACC-257 melanoma
SR leukemia = tested on: SR leukemia
HOP-92 NSCLC = tested on: HOP-92 NSCLC
U251 CNS = tested on: U251 CNS
CCRF-CEM leukemia = tested on: CCRF-CEM leukemia
LOX IMVI melanoma = tested on: LOX IMVI melanoma
IGROV1 ovarian = tested on: IGROV1 ovarian
K-562 leukemia = tested on: K-562 leukemia
CAKI-1 renal = tested on: CAKI-1 renal
M14 melanoma = tested on: M14 melanoma
SN12C renal = tested on: SN12C renal
UACC-62 melanoma = tested on: UACC-62 melanoma
MOLT-4 leukemia = tested on: MOLT-4 leukemia
RXF 393 renal = tested on: RXF 393 renal
COLO 205 colon = tested on: COLO 205 colon
DU-145 prostate = tested on: DU-145 prostate
SW-620 colon = tested on: SW-620 colon
MCF7 breast = tested on: MCF7 breast
SF-295 CNS = tested on: SF-295 CNS
T-47D breast = tested on: T-47D breast
NCI-H522 lung = tested on: NCI-H522 lung
SF-539 CNS = tested on: SF-539 CNS
MALME-3M melanoma = tested on: MALME-3M melanoma
HCT-15 colon = tested on: HCT-15 colon
OVCAR-3 ovarian = tested on: OVCAR-3 ovarian
HT29 colon = tested on: HT29 colon
KM12 colon = tested on: KM12 colon
A498 renal = tested on: A498 renal
SK-MEL-28 melanoma = tested on: SK-MEL-28 melanoma
TK-10 renal = tested on: TK-10 renal
NCI-H226 lung = tested on: NCI-H226 lung
SNB-75 CNS = tested on: SNB-75 CNS
HCC-2998 colon = tested on: HCC-2998 colon

C=C(C(=O)OC)[C@@H]1CC2OC1C(=O)C(C)CCC/C(C)=C/CC[C@@]2(C)O (some centres undefined)
74.9 µM: TGI (UACC-62 melanoma)
25.1 µM: TGI (SR leukemia)
inactive: GI50 (MDA-MB-231 breast) 28.3 µM | GI50 (MDA-MB-435) 25.9 µM | GI50 (A549 NSCLC) 20.1 µM | GI50 (786-0 renal) 15.2 µM | GI50 (OVCAR-4 ovarian) 37.9 µM | GI50 (PC-3 prostate) 36.8 µM | GI50 (EKVX NSCLC) 63.2 µM | GI50 (NCI/ADR-RES ovarian) 28.8 µM | GI50 (BT-549 breast) 25.2 µM | GI50 (UO-31 renal) 16.4 µM | GI50 (SNB-19 CNS) > 100 µM | GI50 (SF-268 CNS) 39.4 µM | GI50 (SK-MEL-5 melanoma) 37 µM | GI50 (NCI-H460 lung) 50.5 µM | GI50 (OVCAR-8 ovarian) 28.1 µM | GI50 (NCI-H23 lung) 14 µM | GI50 (RPMI-8226 leukemia) 16.8 µM | GI50 (HS 578T breast) 36.9 µM | GI50 (HCT-116 colon) 13.4 µM | GI50 (HOP-62 NSCLC) 20.6 µM | GI50 (OVCAR-5 ovarian) 76.7 µM | GI50 (SK-MEL-2 melanoma) 37.8 µM | GI50 (SK-OV-3 ovarian) > 100 µM | GI50 (ACHN renal) 18.6 µM | GI50 (UACC-257 melanoma) 23.3 µM | GI50 (SR leukemia) 5.1 µM | GI50 (HOP-92 NSCLC) 23.8 µM | GI50 (U251 CNS) 36.7 µM | GI50 (CCRF-CEM leukemia) 11 µM | GI50 (LOX IMVI melanoma) 20.2 µM | GI50 (IGROV1 ovarian) 11.3 µM | GI50 (K-562 leukemia) 18.9 µM | GI50 (CAKI-1 renal) 11.4 µM | GI50 (M14 melanoma) 15.8 µM | GI50 (SN12C renal) 31.3 µM | GI50 (UACC-62 melanoma) 26.1 µM | GI50 (MOLT-4 leukemia) 17.2 µM | GI50 (RXF 393 renal) 18 µM | GI50 (COLO 205 colon) 25.1 µM | GI50 (DU-145 prostate) 15 µM | GI50 (SW-620 colon) 15 µM | GI50 (MCF7 breast) 43.5 µM | GI50 (SF-295 CNS) 39.5 µM | GI50 (T-47D breast) 59.8 µM | GI50 (NCI-H522 lung) 19.1 µM | GI50 (SF-539 CNS) 18.4 µM | GI50 (MALME-3M melanoma) 10.9 µM | GI50 (HCT-15 colon) 29.1 µM | GI50 (OVCAR-3 ovarian) 15.9 µM | GI50 (HT29 colon) 36.5 µM | GI50 (KM12 colon) 23.8 µM | GI50 (A498 renal) 37.2 µM | GI50 (SK-MEL-28 melanoma) 25.5 µM | GI50 (TK-10 renal) 20.8 µM
78.7 µM: TGI (COLO 205 colon)
93.6 µM: TGI (OVCAR-8 ovarian)
31.1 µM: TGI (MALME-3M melanoma)
46 µM: TGI (A549 NSCLC)
86.4 µM: TGI (NCI/ADR-RES ovarian)
48.4 µM: TGI (NCI-H522 lung) | TGI (OVCAR-3 ovarian)
55.7 µM: TGI (BT-549 breast)
28.2 µM: TGI (DU-145 prostate)
77.3 µM: TGI (SK-MEL-28 melanoma)
42.6 µM: TGI (ACHN renal)
68 µM: TGI (MDA-MB-231 breast)
31.2 µM: TGI (UO-31 renal)
27.6 µM: TGI (CAKI-1 renal)
26.2 µM: TGI (HCT-116 colon)
91.5 µM: TGI (SN12C renal)
41.2 µM: TGI (HOP-62 NSCLC)
71.1 µM: TGI (TK-10 renal)
25.4 µM: TGI (IGROV1 ovarian)
76.3 µM: TGI (UACC-257 melanoma)
> 100 µM: TGI (OVCAR-4 ovarian) | TGI (PC-3 prostate) | TGI (EKVX NSCLC) | TGI (SNB-19 CNS) | TGI (SF-268 CNS) | TGI (SK-MEL-5 melanoma) | TGI (NCI-H460 lung) | TGI (HS 578T breast) | TGI (OVCAR-5 ovarian) | TGI (SK-MEL-2 melanoma) | TGI (SK-OV-3 ovarian) | TGI (U251 CNS) | TGI (MCF7 breast) | TGI (SF-295 CNS) | TGI (T-47D breast) | TGI (HCT-15 colon) | TGI (HT29 colon) | TGI (KM12 colon)
30.1 µM: TGI (SW-620 colon)
96.8 µM: TGI (A498 renal)
79.4 µM: TGI (MDA-MB-435)
36.1 µM: TGI (CCRF-CEM leukemia)
29.2 µM: TGI (M14 melanoma)
36.4 µM: TGI (RXF 393 renal) | TGI (SF-539 CNS)
54.5 µM: TGI (MOLT-4 leukemia)
31.5 µM: TGI (786-0 renal)
95.2 µM: TGI (HOP-92 NSCLC)
61.2 µM: TGI (RPMI-8226 leukemia)
27.9 µM: TGI (NCI-H23 lung)
57.2 µM: TGI (LOX IMVI melanoma)
43.4 µM: TGI (K-562 leukemia)

O=C1CS/C(=N/S(=O)(=O)c2ccc(N3N=C4c5ccccc5CC4C3c3cccs3)cc2)N1C(=O)c1ccccc1 (centres undefined)
inactive: GI50 (MDA-MB-231 breast) 44.6 µM | GI50 (MDA-MB-435) 37.4 µM | GI50 (A549 NSCLC) 70.8 µM | GI50 (NCI-H226 lung) 58.5 µM | GI50 (786-0 renal) 48.8 µM | GI50 (OVCAR-4 ovarian) > 100 µM | GI50 (PC-3 prostate) 38.1 µM | GI50 (EKVX NSCLC) 42.4 µM | GI50 (NCI/ADR-RES ovarian) > 100 µM | GI50 (BT-549 breast) 33.5 µM | GI50 (UO-31 renal) > 100 µM | GI50 (SNB-19 CNS) 77 µM | GI50 (SF-268 CNS) > 100 µM | GI50 (SK-MEL-5 melanoma) 22.7 µM | GI50 (NCI-H460 lung) > 100 µM | GI50 (OVCAR-8 ovarian) 45.7 µM | GI50 (NCI-H23 lung) 25.1 µM | GI50 (RPMI-8226 leukemia) 34 µM | GI50 (SNB-75 CNS) > 100 µM | GI50 (HS 578T breast) 25.3 µM | GI50 (HCT-116 colon) 22 µM | GI50 (HOP-62 NSCLC) 32.9 µM | GI50 (OVCAR-5 ovarian) 32.2 µM | GI50 (SK-MEL-2 melanoma) > 100 µM | GI50 (SK-OV-3 ovarian) > 100 µM | GI50 (ACHN renal) 39 µM | GI50 (UACC-257 melanoma) > 100 µM | GI50 (HOP-92 NSCLC) 37.3 µM | GI50 (U251 CNS) 36.3 µM | GI50 (CCRF-CEM leukemia) 37.5 µM | GI50 (HCC-2998 colon) 17.6 µM | GI50 (LOX IMVI melanoma) 22.7 µM | GI50 (IGROV1 ovarian) 28.3 µM | GI50 (CAKI-1 renal) 63.9 µM | GI50 (M14 melanoma) 44.7 µM | GI50 (SN12C renal) 49.6 µM | GI50 (UACC-62 melanoma) 23.2 µM | GI50 (MOLT-4 leukemia) 22.2 µM | GI50 (RXF 393 renal) 90.7 µM | GI50 (COLO 205 colon) 51.1 µM | GI50 (DU-145 prostate) 38.2 µM | GI50 (SW-620 colon) 38.5 µM | GI50 (MCF7 breast) > 100 µM | GI50 (SF-295 CNS) 31.7 µM | GI50 (T-47D breast) > 100 µM | GI50 (NCI-H522 lung) 60.1 µM | GI50 (SF-539 CNS) 44.6 µM | GI50 (HCT-15 colon) 56.3 µM | GI50 (OVCAR-3 ovarian) 59.2 µM | GI50 (HT29 colon) 76.1 µM | GI50 (KM12 colon) 21.4 µM | GI50 (A498 renal) 23.6 µM | GI50 (SK-MEL-28 melanoma) > 100 µM
55.9 µM: TGI (HCT-116 colon)
54 µM: TGI (LOX IMVI melanoma)
94.6 µM: TGI (A498 renal)
69.6 µM: TGI (SK-MEL-5 melanoma)
63 µM: TGI (HOP-62 NSCLC)
46.6 µM: TGI (HCC-2998 colon)
56.4 µM: TGI (KM12 colon)
53.4 µM: TGI (MOLT-4 leukemia)
58.4 µM: TGI (UACC-62 melanoma)
> 100 µM: TGI (MDA-MB-231 breast) | TGI (MDA-MB-435) | TGI (A549 NSCLC) | TGI (NCI-H226 lung) | TGI (786-0 renal) | TGI (OVCAR-4 ovarian) | TGI (PC-3 prostate) | TGI (EKVX NSCLC) | TGI (NCI/ADR-RES ovarian) | TGI (BT-549 breast) | TGI (UO-31 renal) | TGI (SNB-19 CNS) | TGI (SF-268 CNS) | TGI (NCI-H460 lung) | TGI (OVCAR-8 ovarian) | TGI (RPMI-8226 leukemia) | TGI (SNB-75 CNS) | TGI (HS 578T breast) | TGI (OVCAR-5 ovarian) | TGI (SK-MEL-2 melanoma) | TGI (SK-OV-3 ovarian) | TGI (ACHN renal) | TGI (UACC-257 melanoma) | TGI (HOP-92 NSCLC) | TGI (U251 CNS) | TGI (CCRF-CEM leukemia) | TGI (IGROV1 ovarian) | TGI (CAKI-1 renal) | TGI (M14 melanoma) | TGI (SN12C renal) | TGI (RXF 393 renal) | TGI (COLO 205 colon) | TGI (DU-145 prostate) | TGI (SW-620 colon) | TGI (MCF7 breast) | TGI (SF-295 CNS) | TGI (T-47D breast) | TGI (NCI-H522 lung) | TGI (SF-539 CNS) | TGI (HCT-15 colon) | TGI (OVCAR-3 ovarian) | TGI (HT29 colon) | TGI (SK-MEL-28 melanoma)
61.1 µM: TGI (NCI-H23 lung)

— PubChem BioAssay (NCI)
